Assay results: patent US10124033B2, “Peptides and methods of use” (BAXALTA INCORPORATED, priority 2014, dated 2018)
Residues, ends and D or L forms follow the SMILES beside them.

Columns and labels:
Protein S = biological target: T1, Protein S (Homo sapiens, UniProt P07225); assay: competition (IC50) ELISA with biotinylated tracer peptide JBS0684; format: binding; details: competition ELISA, tracer JBS0684; re-synthesized peptides
T1 sequence (P07225 41-676 limits assumed): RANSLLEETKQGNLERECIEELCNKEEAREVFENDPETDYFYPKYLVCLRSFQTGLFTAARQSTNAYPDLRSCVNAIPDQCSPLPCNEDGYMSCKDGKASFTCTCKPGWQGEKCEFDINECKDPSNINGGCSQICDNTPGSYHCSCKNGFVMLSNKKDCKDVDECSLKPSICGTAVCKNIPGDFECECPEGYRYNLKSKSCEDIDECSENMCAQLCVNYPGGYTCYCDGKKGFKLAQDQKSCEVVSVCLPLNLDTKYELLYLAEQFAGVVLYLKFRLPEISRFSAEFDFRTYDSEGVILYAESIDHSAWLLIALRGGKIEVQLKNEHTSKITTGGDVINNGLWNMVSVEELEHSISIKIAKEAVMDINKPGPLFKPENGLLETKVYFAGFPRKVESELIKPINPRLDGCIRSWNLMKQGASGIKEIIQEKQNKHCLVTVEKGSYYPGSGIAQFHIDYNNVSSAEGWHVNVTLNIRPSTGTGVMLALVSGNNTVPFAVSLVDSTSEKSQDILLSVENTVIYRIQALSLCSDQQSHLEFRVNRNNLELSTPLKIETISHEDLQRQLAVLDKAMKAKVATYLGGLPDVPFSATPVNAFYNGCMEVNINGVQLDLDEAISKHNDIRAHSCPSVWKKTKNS
Description: The new peptide candidates were synthesized (purity >60%) and screened for affinity in a competitive binding assay (ELISA IC50) and activity in a thrombin generation assay (CAT). The competition (IC50) ELISA was performed using biotinylated tracer peptide JBS0684 to compete for Protein S-binding with candidate peptides. Peptides that compete with the tracer bind the same region of Protein S as the tracer (and each other). Ninety-six well PolySorp plates (Nunc) were coated with 3 μg/mL Protein S in coating buffer (15 mM Na2CO3, 35 mM NaHCO3, pH 9.6) over night. Plates were washed three times with wash buffer (HNaT: 175 mM NaCl, 25 mM HEPES, 5 mM CaCl2, 0.1% Tween 80, pH 7.35), and blocked with 100 μl 2% yeast extract in HNaT for at least 1 hour. Plates were then washed three times with HNaT. JBS0684 was applied at a concentration corresponding to the EC90 value determined in the binding ELISA. A competitor stock solution of peptide (10 mM) was diluted 1/33.3 in HNaT without HSA, and a serial ⅓ dilution was prepared with HNaT with 3% DMSO. The dilution was further diluted with the biotinylated tracer peptide in a ratio of 1:6 (20 μl competitor dilution and 100 μl tracer peptide). The mixture of competitor and tracer peptide was applied to the Protein S-coated microtiter plate and incubated for 1.5 hours. The plates were washed three times with HNaT. Peptide-Protein S binding was detected by applying HRP-conjugated streptavidin to the microtiter plate, incubating the mixture for one hour, washing the plate three times with HNaT, applying TMB (3,3′5,5′-Tetramethylbenzidin), and detecting the subsequent chromogenic conversion of TMB by HRP. IC50 measurements of peptides are provided herein (see, e.g., Table 3).

[1] = biological target: T2, Protein S/APC cofactor activity (Homo sapiens, UniProt P07225); assay: CAT assay: Protein S/APC-dependent thrombin generation in FVIII-inhibited plasma; format: biochemical; details: Protein S-depleted plasma supplemented with APC and Protein S, FVIII-inhibited
T2 construct: host or cells: plasma
T2 sequence (P07225 41-676 limits assumed): T1 sequence (P07225 41-676 limits assumed)
Description: Peptides also were tested for improvement of Protein S/APC-dependent thrombin generation in hemophilic plasma using a CAT assay. Protein S enhances the anticoagulation of APC in plasma. The CAT assay quantifies the effect of Protein S on APC-mediated thrombin generation initiated via the extrinsic coagulation pathway (Nicolaes, Blood Coagul. Fibrinolysis, 8:28 (1997)). APC (35 nM) and Protein S (25 nM) was added to Protein 5-depleted plasma, and plasma samples were incubated with high titer heat inactivated anti-human FVIII plasma raised in goat (4490 BU/ml; Baxter BioScience, Vienna, Austria; 50 BU/ml final plasma concentration). Thrombin formation in plasma was followed by calibrated automated thrombography (CAT) in a Fluoroskan Ascent® reader (Thermo Labsystems, Helsinki, Finland) and quantified via the thrombin peak-height. Thrombin generation was determined at high tissue factor (TF) concentration in the absence and in the presence of APC at a concentration that reduces the peak height to ˜20%. The inhibitory effect of peptides described herein on the APC cofactor activity of Protein S (PS) in plasma was measured in FVIII-inhibited pooled normal plasma supplemented with APC. Complete (100%) Protein S/APC inhibition is the height of the thrombin peak without addition of APC. Lack of (0%) PS/APC inhibition correlates to the thrombin peak-height value with a certain amount of APC. Peptides were ranked by their normalized values in comparison to the mean of wild-type controls including SD at two defined peptide concentrations (EC50 and EC90).
Exemplary conditions for the CAT assay are as follows. Protein S-depleted plasma was supplemented with 35 nM APC and […]. Stock APC was diluted with 10 pM TF and 15 μM PL. Lyophilized peptides were dissolved in 100% DMSO to a 5 mM stock concentration and further diluted with HNABSA5-buffer+0.1% Tween80. […] In a 96 well Immulon 2HB (transparent), U-bottom (ThermoElectron) plate was mixed 80 μl plasma (+CTI+Z994-5), 10 μl peptide dilution, and 10 μl APC-TF-PL-MIX or Calibrator. Thrombin generation was initiated by dispensing 20 μL of FluCa reagent containing fluorogenic substrate and HEPES-buffered CaCl2 (100 mM) into each well. Fluorescence intensity was recorded at 37° C. using the Fluoroskan Ascent® reader (filters 390 nm excitation and 460 nm emission). The parameters of the resulting thrombin generation curves were calculated using the Thrombinoscope™ software (Thrombinoscope) and thrombin calibrator to correct for inner filter and substrate consumption effects (Hemker, Pathophysiol Haemost Thromb, 33: 415 (2003)).

Row | SMILES | IC50 (Protein S) | EC50 [1]
1 | CC(=O)N[C@H](C(=O)NCC(=O)N[C@@H](Cc1c[nH]cn1)C(=O)N[C@H](C(=O)N[C@@H](CO)C(=O)N[C@@H](C)C(=O)NCC(=O)N[C@@H](Cc1c[nH]c2ccccc12)C(=O)N[C@@H](Cc1ccc(O)cc1)C(=O)N[C@@H](CC(=O)O)C(=O)N[C@@H](Cc1ccc(O)cc1)C(=O)N[C@@H](CC(N)=O)C(=O)N[C@@H](C)C(=O)N[C@@H](CC(=O)O)C(=O)N[C@@H](Cc1c[nH]cn1)C(=O)N[C@@H](Cc1ccc(O)cc1)C(=O)N[C@@H](CCCNC(=N)N)C(=O)N[C@@H](CCC(=O)O)C(=O)N[C@@H](Cc1ccccc1)C(=O)N[C@H](C(N)=O)[C@@H](C)O)C(C)C)[C@@H](C)O [JBS2526] (Ac-TGHVSAGWYDYNADHYREFT-NH2) | 3.6 nM | 19 nM
2 | CC(=O)N[C@H](C(=O)NCC(=O)N[C@@H](Cc1c[nH]cn1)C(=O)N[C@H](C(=O)N[C@@H](CO)C(=O)N[C@@H](C)C(=O)NCC(=O)N[C@@H](Cc1c[nH]c2ccccc12)C(=O)N[C@@H](Cc1ccc(O)cc1)C(=O)N[C@@H](CC(=O)O)C(=O)N[C@@H](Cc1ccc(O)cc1)C(=O)N[C@@H](CC(N)=O)C(=O)N[C@@H](Cc1ccccc1)C(=O)N[C@@H](CC(=O)O)C(=O)N[C@@H](CC(=O)O)C(=O)N[C@@H](Cc1ccc(O)cc1)C(=O)N[C@@H](CCCNC(=N)N)C(=O)N[C@@H](CCC(=O)O)C(=O)N[C@@H](Cc1ccccc1)C(=O)N[C@H](C(N)=O)[C@@H](C)O)C(C)C)[C@@H](C)O [JBS2546] (Ac-TGHVSAGWYDYNFDDYREFT-NH2) | 6.8 nM | 30 nM
3 | CC(=O)NCC(=O)NCC(=O)N[C@@H](Cc1c[nH]cn1)C(=O)N[C@H](C(=O)N[C@@H](CO)C(=O)N[C@@H](C)C(=O)NCC(=O)N[C@@H](Cc1c[nH]c2ccccc12)C(=O)N[C@@H](Cc1ccc(O)cc1)C(=O)N[C@@H](CC(=O)O)C(=O)N[C@@H](Cc1ccc(O)cc1)C(=O)N[C@@H](CC(N)=O)C(=O)N[C@@H](Cc1ccccc1)C(=O)N[C@@H](CC(=O)O)C(=O)N[C@@H](Cc1c[nH]cn1)C(=O)N[C@@H](Cc1ccc(O)cc1)C(=O)N[C@@H](CCCNC(=N)N)C(=O)N[C@@H](CCC(=O)O)C(=O)N[C@@H](Cc1ccccc1)C(=O)N[C@H](C(N)=O)[C@@H](C)O)C(C)C [JBS2552] (Ac-GGHVSAGWYDYNFDHYREFT-NH2) | 5.5 nM | 24 nM
4 | CC(=O)N[C@H](C(=O)NCC(=O)N[C@@H](Cc1c[nH]cn1)C(=O)N[C@H](C(=O)N[C@@H](CO)C(=O)N[C@@H](C)C(=O)NCC(=O)N[C@@H](Cc1c[nH]c2ccccc12)C(=O)N[C@@H](Cc1ccc(O)cc1)C(=O)N[C@@H](CC(=O)O)C(=O)N[C@@H](Cc1ccc(O)cc1)C(=O)N[C@@H](CC(N)=O)C(=O)N[C@@H](Cc1ccccc1)C(=O)N[C@@H](CC(=O)O)C(=O)N[C@@H](CC(C)C)C(=O)N[C@@H](Cc1ccc(O)cc1)C(=O)N[C@@H](CCCNC(=N)N)C(=O)N[C@@H](CCC(=O)O)C(=O)N[C@@H](Cc1ccccc1)C(=O)N[C@H](C(N)=O)[C@@H](C)O)C(C)C)[C@@H](C)O [JBS2584] (Ac-TGHVSAGWYDYNFDLYREFT-NH2) | 2.7 nM | 9 nM
5 | CC(=O)N[C@H](C(=O)NCC(=O)N[C@@H](Cc1c[nH]cn1)C(=O)N[C@H](C(=O)N[C@@H](CO)C(=O)N[C@@H](C)C(=O)NCC(=O)N[C@@H](Cc1c[nH]c2ccccc12)C(=O)N[C@@H](Cc1ccc(O)cc1)C(=O)N[C@@H](CC(=O)O)C(=O)N[C@@H](Cc1ccc(O)cc1)C(=O)N[C@@H](CC(N)=O)C(=O)N[C@@H](Cc1ccccc1)C(=O)N[C@@H](CC(=O)O)C(=O)N[C@@H](Cc1c[nH]cn1)C(=O)N[C@@H](Cc1ccc(O)cc1)C(=O)N[C@@H](CC(C)C)C(=O)N[C@@H](CCC(=O)O)C(=O)N[C@@H](Cc1ccccc1)C(=O)N[C@H](C(N)=O)[C@@H](C)O)C(C)C)[C@@H](C)O [JBS2586] (Ac-TGHVSAGWYDYNFDHYLEFT-NH2) | 2.6 nM | 19 nM
6 | CC(=O)N[C@H](C(=O)NCC(=O)N[C@@H](Cc1c[nH]cn1)C(=O)N[C@H](C(=O)N[C@@H](CO)C(=O)N[C@@H](C)C(=O)NCC(=O)N[C@@H](Cc1c[nH]c2ccccc12)C(=O)N[C@@H](Cc1ccc(O)cc1)C(=O)N[C@@H](CC(=O)O)C(=O)N[C@@H](Cc1ccc(O)cc1)C(=O)N[C@@H](CC(N)=O)C(=O)N[C@@H](CCCCN)C(=O)N[C@@H](CC(=O)O)C(=O)N[C@@H](Cc1c[nH]cn1)C(=O)N[C@@H](Cc1ccc(O)cc1)C(=O)N[C@@H](CCCNC(=N)N)C(=O)N[C@@H](CCC(=O)O)C(=O)N[C@@H](Cc1ccccc1)C(=O)N[C@H](C(N)=O)[C@@H](C)O)C(C)C)[C@@H](C)O [JBS2602] (Ac-TGHVSAGWYDYNKDHYREFT-NH2) | 3.4 nM | 30 nM
7 | CC(=O)N[C@H](C(=O)NCC(=O)N[C@@H](Cc1c[nH]cn1)C(=O)N[C@H](C(=O)N[C@@H](CO)C(=O)N[C@@H](C)C(=O)NCC(=O)N[C@@H](Cc1c[nH]c2ccccc12)C(=O)N[C@@H](Cc1ccc(O)cc1)C(=O)N[C@@H](CC(=O)O)C(=O)N[C@@H](Cc1ccc(O)cc1)C(=O)N[C@@H](CC(N)=O)C(=O)N[C@@H](Cc1ccccc1)C(=O)N[C@@H](CC(=O)O)C(=O)N[C@@H](CCCCN)C(=O)N[C@@H](Cc1ccc(O)cc1)C(=O)N[C@@H](CCCNC(=N)N)C(=O)N[C@@H](CCC(=O)O)C(=O)N[C@@H](Cc1ccccc1)C(=O)N[C@H](C(N)=O)[C@@H](C)O)C(C)C)[C@@H](C)O [JBS2604] (Ac-TGHVSAGWYDYNFDKYREFT-NH2) | 4.1 nM | 19 nM
